From patent US20050220912A1, “Anti-inflammatory composition for treating pelvic endometriosis” (priority 2004, published 2005)

Columns and labels:
[1] = Effect of olive kernel extract on absorption of tritiated chondroitin sulfate in vivo (serum radioactivity after oral capsule); set-up: species or system male Sprague-Dawley rats; conditions: serum radioactivity at 8 hours
Protocol: Chondroitin sulfate was tritiated by New England Nuclear Corp. to a specific activity of 4.3 mCi/ml.
Unlabeled chondroitin sulfate was dissolved in olive kernel extract at a ratio of about 55 w/v chondroitin sulfate powder to about 450 w/v of olive kernel extract (2.9% acidity as oleic acid, 1.03% water, 0.08% hexane). To this solution was added 20.2 microcuries of the labeled chondroitin sulfate. AAA gelatin capsules were filled with the resulting solution using an aluminum template molding device.
The laboratory animals (250 g male Sprague-Dawley rats) were kept overnight without food but with free access to water. One capsule containg the above-described chondroitin sulfate-olive kernel extract solution was given to each rat per os. Control animals were given the equivalent amount of chondroitin, but without olive kernel extract. The animals were then given free access to food. Serum radioactivity was measured 8 hours thereafter in a beta scintillation counter.

[2] = Chondroitin sulfate solubility in oils; format: physicochemical; conditions: in codfish oil, corn oil and olive oil (from the flesh of the olive)
Source text: Parallel experiments with codfish oil, corn oil and olive oil (from the flesh of the olive) were comtemplated, but chondroitin sulfate solubility in these oils was insufficient to meet the requirements of the experiment.

[3] = commercially available chondroitin sulfate preparations (cow trachea); cited from earlier work

For chondroitin sulfate, the “dose of labeled chondroitin sulfate that reached the circulation” value ([1]; control animals, per os capsule without olive kernel extract, n=3) was “about 3.9%+/−0.4%”, the “dose of labeled chondroitin sulfate absorbed into the general circulation” value ([1]; per os capsule, chondroitin sulfate dissolved in olive kernel extract, n=4) was “about 14.3%+/−0.7%” and the chondroitin sulfate solubility [2] was “insufficient”. For the same substance, the “Absorption from g.i. tract / absorbed orally” value [3] was “less than 5%”.
